Experimental data taken from patent publication US20260151363A1, “MELANOGENESIS INHIBITION COMPOSITIONS AND METHODS OF USE THEREOF” (MDI BIOLOGICAL LABORATORY, priority 2023, published 2026).
Where two headings read alike, the source gives them in different places.

What was measured:
melanin production = experiment: Melanin production and toxicity, ML233 analogs in parallel with ML233 (serial dilution); settings: for toxicity: 25 μM
Description: The ML233 analogs were tested in parallel with serial dilution in DMSO: at 25 μM, 12.5 μM, […], 3.12 5 μM, 1.5625 μM and […].

[1] = system: B16F10 murine melanoma cell line; experiment: B16F10 melanoma cell proliferation / viability; assay type: cell-based; settings: Mus musculus, B16-F10
Description: ML233 reduced pigmentation in a mammalian melanoma cell line. In vivo, in vitro, and computational studies described here supported the hypothesis that ML233 was a direct inhibitor of TYR protein expression and function. The effects of ML233 and cisplatin on the proliferation of B16F-10 murine melanoma cells in vitro was analyzed. To determine the effects of conservation in higher vertebrate species, ML233 activity in the B16F10 murine melanoma cell line was tested. B16F10-cell proliferation was analyzed after ML233 treatment to determine IC50. A 50% reduction in cell viability at concentrations of ML233 between 5 and 10 μM was observed (FIG. 5A). Cells were treated with various concentration of ML233 or cisplatin and the cell viability of control percent versus the concentration of ML233 or cisplatin (in μM) was analyzed (FIGS. 5A and 5B).

tyrosinase [2] = experiment: In vitro tyrosinase activity (FIG. 3B); assay type: biochemical; settings: compared to DMSO
Excerpt: The effect of ML233 on tyrosinase activity was also explored in in vitro experiments.

[3] = system: B16F10 murine melanoma cells; experiment: Melanin production in B16F10 cells (OD 410, IBMX-stimulated); assay type: cell-based
Description: To determine if ML233 could inhibit pigmentation of […] cells at low ML233 concentrations (without effects on cell proliferation), melanin production was analyzed in B16F10 cells after 24 hours of treatment with 0.625 μM, 1.25 μM, 2.5 μM, or 5 μM of ML233. Observation of cell pellets after centrifugation confirmed that ML233 function to inhibit melanin production was conserved in mammals (data not shown). The effect of ML233 and 3-isobutyl-1-methylxanthine (IBMX) on melanin production was analyzed in B16F10 murine melanoma cells. IBMX is a non-selective phosphodiesterase inhibitor, which induced melanin production in B16F10 murine melanoma cells. Melanin production was measured in cells treated with IBMX alone (100 micromolar), and IBMX in conjunction with: 0.625 micromolar ML233, 1.25 micromolar ML233, 2.5 micromolar ML233, and five micromolar ML233, as well as in negative control cells treated with DMSO vehicle alone. Melanin production in treated cells was measured using optical density (FIG. 6A) at a wavelength of 410 nm (OD value 410). Ratios with the total quantity of protein (OD value 562) were calculated (FIG. 6B). […] P-values are indicated in the bar charts.

[4] = system: tyr, dct, and mitfa mRNA expression; experiment: RT-qPCR of tyr, dct and mitfa mRNA in zebrafish embryos; assay type: in vivo
Description: (§1) Example 10: Tyrosinase gene expression was not abolished by ML233 treatmentTo better understand the molecular action of ML233 on skin pigmentation and melanogenesis, the expression of genes involved in melanogenesis, including tyrosinase (tyr), dopachrome tautomerase (dct), and microphthalmia-associated transcription factor (mitfa), the latter which is known to control melanocyte formation and TYR expression, was analyzed.

[5] = system: ME1154B human melanoma line; experiment: cells; assay type: cell-based; settings: ME1154B 3D organoids, read-out: IC50 viability/proliferation
Description: (§2) Because ML233 affected B16F10 murine melanoma-cell proliferation, the proliferative potential of human metastatic melanoma was determined. Patient-derived xenograft organoids (PDXOs), which were 3D in vitro models generated from patient tumors, were used. The effect of ML233 treatment (between 0.001 μM and 10 μM) in two different human melanoma cell lines collected from metastasis, ME1154B and ME2319B (Crown Bioscience). These two melanoma lines differed in their sensitivity to both ML233 and the control molecule, staurosporine (STS), in 3D organoids (FIGS. 12A-12B).

tyrosinase [6] = experiment: Tyrosinase activity in treated zebrafish embryos (absorbance of L-DOPA); assay type: in vivo
Description: To determine the effect of ML233 on tyrosinase activity, zebrafish embryos were treated with ML233 at the following concentrations: 0.5 micromolar, 1.25 micromolar, 2.5 micromolar, five micromolar, 10 micromolar, and 15 micromolar ML233 (FIG. 3A). DMSO was used as a carrier and the tyrosinase inhibitor PTU was used as a positive control.

B16F10 (murine melanoma) = experiment: Tyrosinase protein expression (Western blot) and pigmentation in B16F10 cells; assay type: cell-based; settings: 5 μM
Description: To study these two possibilities, an antibody raised against the human tyrosinase protein was used. The capacity of the antibody to recognize TYR in two different mammalian cell lines (FIG. 11A): B16F10 (murine melanoma) and A375 (human melanoma) was tested. Using the validated antibody, the level of tyrosinase protein expression by Western blot in control DMSO and 5 μM ML233 treated cells (FIG. 11B) was analyzed.

tyrosinase [7] = experiment: Tyrosinase expression by Western blot and densitometry (FIG. 9); settings: 15 μM
Description: An analysis of tyrosinase expression after ML233 treatment was performed. […] Quantitative analysis was also performed using densitometry of tyrosinase expression after ML233 treatment at 15 μM of the Western blot data (FIG. 9B). DMSO was a negative control, while phenylthiourea (PTU), which is a potent inhibitor of human tyrosinase), was used as a positive control. CRISPR was used as a specificity control of the antibody used in the analysis, where CRISPR was directed against the tyrosinase gene.

zebrafish embryos [8] = experiment: Bulk RNAseq and GSEA in WT and aplnr KO zebrafish embryos; assay type: in vivo; settings: 0.5 μM
Excerpt: Because ML233 is an agonist of the apelin receptors, ML233 driven differential expression in an apelin dependent and independent manner was investigated. […] A clear separation in gene expression between the WT and KO backgrounds was observed (FIG. 10C).

zebrafish embryos [9] = experiment: Percent melanin quantity in zebrafish embryos; assay type: in vivo
Description: The effect of ML233 on percent melanin quantity was assayed in zebrafish embryos beginning at 4 hours post-fertilization and ending at 48 hours. Developing embryos were treated with ML233 in DMSO carrier at varying dosages, or DMSO as a negative control or with phenylthiourea (PTU) as a positive control.

[10] = system: ME2319B human melanoma line; experiment: PDXO viability/proliferation, ME2319B; assay type: cell-based; settings: ME2319B 3D organoids
Description: as §2

mitfa and tyr genes = experiment: In situ hybridization of mitfa and tyr in zebrafish embryos; assay type: in vivo; settings: for tyr mRNA detection (in situ hybridization): embryos at 48 hpf, treated between 24 and 48 hpf
Description: as §1

zebrafish embryos [11] = experiment: Pigmentation of zebrafish embryos (micrographs); assay type: in vivo
Description: Zebrafish embryos were allowed to develop in the presence of ML233 and the effects of ML233 on pigmentation was analyzed. ML233 was dissolved in carrier Dimethylsulfoxide (DMSO). Embryos were exposed to ML233 beginning at four hours post-fertilization and ending at 48 hours post-fertilization. Dimethylsulfoxide (DMSO) was used as a negative control. ML233 dosages tested were 2.5 micromolar, five micromolar, and 10 micromolar (FIG. 1A).
The effect of ML233 on pigmentation was analyzed in zebrafish embryos at 38 hours post-fertilization when larvae were highly pigmented. Embryos were treated with ML233 at the following concentrations: 5 micromolar, 10 micromolar, and 15 micromolar. The carrier, DMSO, was used as a negative control. Pigmentation was analyzed six hours (FIG. 2A) and 24 hours after ML233 addition (FIG. 2B).

mushroom TYR = experiment: Mushroom TYR conversion of L-DOPA to melanin in vitro (FIG. 3C); assay type: biochemical; settings: 20 μM; compared to DMSO
Description: To determine whether ML233, a small inhibitor of melanogenesis, acts directly on tyrosinase (TYR) activity in vitro, the activity of mushroom TYR was assessed via measurement of its capacity to convert L-DOPA to melanin in vitro using Kojic Acid at 100 μM as a positive control.

zebrafish embryos [12] = experiment: Zebrafish embryo viability / toxicity; assay type: in vivo; settings: 2.5, five
Excerpt: Studies were undertaken to evaluate the effect of ML233 on embryo viability. […] The number of viable and dead embryos at 1 day post fertilization (dpf), 2 dpf, 3 dpf and 4 dpf and at various doses of ML233 was compared to embryo viability in negative controls, which included embryos treated with the carrier DMSO or untreated embryos. (FIG. 4A).

[13] = serial dilution 25 μM to 0.78125

CC1=C/C(=N/OS(=O)(=O)c2ccccc2)C(C(C)C)=CC1=O [(i), [(Z)-(5-methyl-4-oxo-2-propan-2-ylcyclohexa-2,5-dien-1-ylidene)amino]benzenesulfonate]
toxicity (melanin production): higher toxicity
inhibition of melanin production (melanin production; [13]): Inhibition of melanin production was also observed

CC1=CC(=O)C(C(C)C)=C/C1=N\OS(=O)(=O)c1ccccc1 [(iii), [(E)-(2-methyl-4-oxo-5-propan-2-ylcyclohexa-2,5-dien-1-ylidene)amino]benzenesulfonate]
toxicity (melanin production): higher toxicity
inhibition of melanin production (melanin production; [13]): Inhibition of melanin production was also observed

CC1=CC(=O)C(C2CCCCC2)=C/C1=N\OS(=O)(=O)c1ccccc1 [ML233, (E)-2-cyclohexyl-5-methyl-4-(phenylsulfonyloxyimino)cyclohexa-2,5-dienone]
IC50 ([1]; B16F10, read-out: concentration giving 50% reduction in cell viability): 5 to 10 µM
IC50 ([1]; B16F10 proliferation, read-out: in vitro IC50): 10 µM
reduction of tyrosinase activity (tyrosinase [2]; 20 micromolar): greater than 40%
reduction of tyrosinase activity (tyrosinase [2]; 30 micromolar): 50%
melanogenesis (melanin OD 410; ratio to protein OD 562) ([3]; IBMX 100 micromolar plus 0.625, 1.25, 2.5 or five micromolar ML233): reduced melanogenesis in mammalian melanoma cells at all dosages
B16F10 cells survival ([3]; between 0.625 and 5 μM): without affecting B16F10 cells survival
melanoma-cell pigmentation (absorbance quantification of melanin) ([3]; concentrations as low as 0.625 μM): significantly reduced
tyr expression by RT-qPCR ([4]; 5 μM and greater): Significantly decreased
maximum reduction of tyr expression ([4]; 20 μM, compared to DMSO-treated embryos): ~40%
mitfa expression by RT-qPCR ([4]; any concentration): not significantly dysregulated
tyr, dct, and mitfa mRNA expression by RT-qPCR ([4]; embryos at 2 dpf after 1 day of treatment): mild reduction of gene expression
IC50 [5]: 1.65 µM
percent of tyrosinase activity compared with PTU (tyrosinase [6]; 10 micromolar and 15 micromolar ML233 groups): comparable to PTU
tyrosinase activity (tyrosinase [6]; concentration as low as 0.5 micromolar): significantly reduced
pigmentation of cells (B16F10 (murine melanoma)): strong reduction in the pigmentation
TYR protein expression normalized with Beta-actin (B16F10 (murine melanoma); vs DMSO): no significant reduction of TYR protein expression
tyrosinase expression (Western blot) (tyrosinase [7]): tyrosinase expression was inhibited
impact on biological processes (GSEA) (zebrafish embryos [8]): did not significantly impact biological processes
melanin production (percent melanin quantity) (zebrafish embryos [9]; 0.5 to 15 micromolar, 4 to 48 hours post-fertilization): significantly inhibited melanin production at all levels tested
melanin quantity compared with PTU (zebrafish embryos [9]; 5 micromolar and above): comparable to treatment with PTU
viability ([10]; between 0.001 μM and 10 μM): did not affect ME2319B viability at any concentration tested
mitfa and tyr gene expression in melanocytes (in situ hybridization) (mitfa and tyr genes; 2 dpf after 1 day of 15 μM): still expressed in melanocytes
tyr mRNA detection (in situ hybridization) (mitfa and tyr genes): highly detectable
pigmentation of embryos (zebrafish embryos [11]; 2.5, five and 10 micromolar, exposure 4 to 48 hours post-fertilization, vs DMSO): visible decrease in pigmentation
pigmentation of embryos (zebrafish embryos [11]; treated at 38 hours post-fertilization, 5, 10, 15 micromolar, six hours and 24 hours after addition): reduced pigmentation at all dosages
inhibition of melanin production (melanin production; 3.125 μM and lower concentrations): very efficient at inhibiting melanin production
reduction of melanogenesis (L-DOPA to melanin) (mushroom TYR): ~40%
percent viability at day four post fertilization (zebrafish embryos [12]; 10 and 20 micromolar): No deleterious effects on zebrafish viability
toxicity (viable and dead embryos at 1 to 4 dpf) (zebrafish embryos [12]; 10 and 20 micromolar from 4 hours post-fertilization): low toxicity at effective concentrations

NC(=S)Nc1ccccc1 [PTU, phenylthiourea, reference compound]
tyr mRNA detection (in situ hybridization) (mitfa and tyr genes): highly detectable

CN[C@@H]1C[C@H]2O[C@@](C)([C@@H]1OC)n1c3ccccc3c3c4c(c5c6ccccc6n2c5c31)C(=O)NC4 [STS, staurosporine, reference compound]
IC50 ([10]; Homo sapiens): 0.0025 µM

[(E)-(5-methyl-4-oxo-2-propan-2-ylcyclohexa-2,5-dien-1-ylidene)amino]4-methylbenzenesulfonate [(ii)]
inhibition of melanin production (melanin production; [13]): Inhibition of melanin production was also observed
